# Like-named read-outs stand apart in the source and are kept apart here. Positions of bridges follow the written chain, without caps; N, C: chain ends. Non-standard residues stand in square brackets, D forms with d. Residues, ends and D or L forms follow the SMILES beside them. No end group written: not given here. *: point of attachment. X1 = CC(=O)N[C@@H](Cc1ccccc1)C(=O)N[C@H]1Cc2ccc(cc2)OC/C=C/COc2ccc(cc2)C[C@@H](C(=O)*)NC1=O; AllylGly = C=CC[C@H](N)C(=O)O
# How the values were obtained:
# cloned rat KOR [1] = target: T1, cloned rat KOR (Rattus norvegicus, UniProt P34975); details: read-out: KOR Ki ± SEM; cited from earlier work
# T1 construct: expressed in transfected cells
# KOR [2] = details: following a single injection; ref [4]; cited from earlier work
# Source text: Recently, antagonists of the kappa opioid receptor (KOR) have attracted significant attention due to their potential use in treating various central nervous system (CNS) disorders, especially mood disorders and substance abuse. […] Consequently, there has been a growing interest in KOR antagonists, including peptide KOR antagonists, with m ...
# cloned rat KOR [3] = target: T1, cloned rat KOR; assay: Radioligand binding, competitive inhibition of [^3H]diprenorphine, KOR
# cloned rat MOR = target: T2, cloned rat MOR (Rattus norvegicus, UniProt P33535); assay: Radioligand binding, competitive inhibition of [^3H]DAMGO, MOR
# T2 construct: expressed in transfected cells
# KOR [4] = assay: Dynorphin-stimulated [^35S]GTPγS assay, KOR antagonism (Schild analysis); type: biochemical; details: for agonist activity / type of antagonism at KOR: [^35S]GTPγS binding assay
# ẟ opioid receptor (DOR) = details: ref [6]; cited from earlier work
# proteases = details: linear peptide; general statement; cited from earlier work
# KOR [5] = details: ref [6]; cited from earlier work
# KOR [6] = details: [^35S]GTPγS binding assay; known comparator; cited from earlier work
# [7] = test system: stress-induced reinstatement of cocaine-seeking behavior; details: mouse conditioned place preference; i.c.v.; ref [7]; cited from earlier work
# [8] = test system: KOR (antagonism of U50,488 antinociception); details: mouse 55 °C warm-water tail withdrawal; i.c.v.; ref [7]; cited from earlier work
# KOR [9] = test system: KOR; parameters: method as in PMID 34162205; details: ref [23]; read-out: KOR agonist potency EC50; cited from earlier work
# KOR [10] = target: KOR; parameters: method as in PMID 34162205; details: ref [23]; cited from earlier work
compound,measurement,setting,value
"3: monocyclic arodyn analog, RCM cyclization between Tyr(All) residues in positions 2 and 3 (FYYRLRRARPK) [Peptide 3]",Ki,cloned rat KOR [1],55.4 ± 4.1 nM
CC(C)[C@@H](CN1CC[C@@](C)(c2cccc(O)c2)[C@@H](C)C1)NC(=O)[C@H]1Cc2ccc(O)cc2CN1 [JDTic],duration of action,KOR [2],"exhibited prolonged effects, with their action extending from days to weeks"
CC(=O)N[C@@H](Cc1ccccc1)C(=O)N[C@H]1Cc2ccc(cc2)OC/C=C/COc2ccc(cc2)C[C@@H](C(=O)N[C@@H](CCCNC(=N)N)C(=O)N[C@H]2CC=CC[C@@H](C(=O)N[C@@H](CCCNC(=N)N)C(=O)N3CCC[C@H]3C(=O)N[C@@H](CCCCN)C(N)=O)NC(=O)[C@H](CCCNC(=N)N)NC(=O)[C@H](CCCNC(=N)N)NC2=O)NC1=O [Peptide 4] (X1-R[AllylGly]RR[AllylGly]RPK-NH2; staple 2-5),Ki,cloned rat KOR [3],26.4 ± 5.9 nM
same,KOR selectivity over MOR,cloned rat KOR [3]; MOR Ki / KOR Ki,97 fold
same,Ki Ratio (MOR/KOR),cloned rat KOR [3]; MOR Ki / KOR Ki,97
same,Ki,cloned rat MOR,2570 ± 500 nM
same,agonist activity / type of antagonism at KOR,KOR [4],did not exhibit appreciable agonist activity and functioned as a potent competitive KOR antagonist
same,agonist activity / type of antagonism at KOR,KOR [4]; listed as bicyclic analog,exhibits potent KOR antagonism
same,Kb,"KOR [4]; dynorphin A-(1–13)-NH2-stimulated [^35S]GTPγS binding, KOR membranes, peptidase inhibitors present, four concentrations 1–1000 nM of 4, Schild analysis, mean values from 4 independent experiments",0.9 nM
same,KOR affinity and KOR antagonism relative to monocyclic analogs,KOR [4]; dynorphin-stimulated [^35S]GTPγS assay and KOR binding,comparable to monocyclic analogs
"Ac[Phe^1,2,3,Arg^4,D-Ala^8]dynorphin A-(1–11)-NH2 [arodyn]",Ki,ẟ opioid receptor (DOR),> 5000 nM
same,susceptibility to proteolysis,proteases,susceptible to rapid breakdown by proteases
same,KOR antagonism in vitro,KOR [5],potent KOR antagonist in vitro
same,agonist activity / type of antagonism at KOR,KOR [6],did not exhibit appreciable agonist activity and functioned as a potent competitive KOR antagonist
same,reinstatement of cocaine-seeking behavior induced by stress,[7],prevented the reinstatement of cocaine-seeking behavior induced by stress
same,"antagonism of antinociception produced by U50,488",[8],"antagonized antinociception produced by the KOR-selective agonist U50,488"
"dynorphin A-(1–13)-NH2: KOR agonist reference peptide (YGGFLRRIRPKLK-NH2; UniProt P01213 207-219, looked up, fragment)",EC50,KOR [9],2.8 nM
same,Ki,KOR [10],0.3 nM

# Source: publication PMC11243530 (Molecules, 2024)
